Each block holds one compound with its values, some of them ahead of it. The source made the active and inactive calls.
What was measured:
Estrogen receptor = target: T1, Estrogen receptor (Homo sapiens, UniProt P03372); assay: potentiators of ERα–SRC-1 coactivator binding, dose response, biochemical, TR-FRET, ERα LBD (AID 737)
T1 sequence (P03372 whole entry): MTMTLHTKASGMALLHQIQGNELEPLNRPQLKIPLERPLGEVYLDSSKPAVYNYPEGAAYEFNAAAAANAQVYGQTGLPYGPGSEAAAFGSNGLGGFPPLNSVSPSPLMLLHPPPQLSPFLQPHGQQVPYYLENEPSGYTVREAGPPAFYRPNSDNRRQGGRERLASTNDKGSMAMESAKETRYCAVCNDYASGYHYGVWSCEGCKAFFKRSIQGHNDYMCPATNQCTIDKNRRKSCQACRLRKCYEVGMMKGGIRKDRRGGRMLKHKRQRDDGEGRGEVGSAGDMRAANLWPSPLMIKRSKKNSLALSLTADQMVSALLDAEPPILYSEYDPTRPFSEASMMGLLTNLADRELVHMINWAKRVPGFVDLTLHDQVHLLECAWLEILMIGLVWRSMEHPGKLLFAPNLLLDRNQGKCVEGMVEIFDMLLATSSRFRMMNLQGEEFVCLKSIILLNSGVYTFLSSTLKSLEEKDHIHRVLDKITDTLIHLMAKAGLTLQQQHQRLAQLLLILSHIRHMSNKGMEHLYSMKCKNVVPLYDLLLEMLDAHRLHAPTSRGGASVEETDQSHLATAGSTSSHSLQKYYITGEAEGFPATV

[1] = target: G-protein coupled receptor 55 (Homo sapiens, UniProt Q9Y2T6); assay: GPR55 agonists via beta-arrestin recruitment, primary screen, imaging, U2OS cells, beta-arrestin-GFP redistribution (AID 1961); assay type: functional
[2] = ADAM10 inhibitors, peptide cleavage, dose response, biochemical, QFRET (AID 743254);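 further: ADAM10 enzyme with the DM2 quenched FRET peptide as substrate; EDANS fluorescence gain as the protease cuts the substrate; inhibitor potency against ADAM10 proteolytic activity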
[3] = target: T2, Short transient receptor potential channel 4 (Mus musculus, UniProt Q9QUQ5); assay: TRPC4 positive allosteric modulators, dose response, cell-based, HEK293 TRPC4/mu-opioid, Fluo-4 calcium, EC20 DAMGO (AID 434941); assay type: functional
T2 sequence (Q9QUQ5 whole entry): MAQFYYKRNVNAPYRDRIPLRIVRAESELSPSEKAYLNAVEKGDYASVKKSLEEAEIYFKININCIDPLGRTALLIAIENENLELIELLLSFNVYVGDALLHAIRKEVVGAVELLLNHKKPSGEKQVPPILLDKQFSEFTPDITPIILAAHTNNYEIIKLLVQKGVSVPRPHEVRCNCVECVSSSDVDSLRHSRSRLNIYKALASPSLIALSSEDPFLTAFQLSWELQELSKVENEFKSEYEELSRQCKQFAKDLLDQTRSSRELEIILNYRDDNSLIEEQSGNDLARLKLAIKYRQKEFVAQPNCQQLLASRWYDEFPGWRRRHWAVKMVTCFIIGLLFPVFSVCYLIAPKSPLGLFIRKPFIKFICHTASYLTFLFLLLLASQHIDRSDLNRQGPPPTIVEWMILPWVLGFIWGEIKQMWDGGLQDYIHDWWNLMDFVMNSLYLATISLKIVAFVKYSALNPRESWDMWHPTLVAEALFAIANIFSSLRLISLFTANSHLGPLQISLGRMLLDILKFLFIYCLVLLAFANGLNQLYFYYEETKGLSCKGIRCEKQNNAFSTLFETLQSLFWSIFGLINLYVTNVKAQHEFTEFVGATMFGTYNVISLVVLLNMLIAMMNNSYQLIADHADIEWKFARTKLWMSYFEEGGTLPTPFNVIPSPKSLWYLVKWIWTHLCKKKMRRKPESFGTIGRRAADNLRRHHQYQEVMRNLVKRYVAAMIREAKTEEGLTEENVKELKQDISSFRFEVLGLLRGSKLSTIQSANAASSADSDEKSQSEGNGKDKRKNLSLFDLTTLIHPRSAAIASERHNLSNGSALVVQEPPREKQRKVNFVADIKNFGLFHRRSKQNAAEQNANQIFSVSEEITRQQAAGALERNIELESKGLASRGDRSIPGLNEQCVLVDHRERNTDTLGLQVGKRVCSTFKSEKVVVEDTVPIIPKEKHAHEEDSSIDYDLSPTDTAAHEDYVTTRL

[4] = target: Disintegrin and metalloproteinase domain-containing protein 17 (Homo sapiens, UniProt P78536); assay: ADAM17 protease inhibitors, dose response, counter-screen for ADAM10 exosite inhibitor project, biochemical, quenched FRET substrate (AID 743253)
[5] = target: T3, Small ubiquitin-related modifier 2 (Homo sapiens, UniProt P61956); assay: inhibitors of SUMO2 protein-protein interaction, dose response, selectivity assay for SUMO1 interaction inhibitor project, biochemical, FRET, human SUMO2, uHTS hits (AID 624384); assay type: functional; details: read-out: IC50_Mean
[6] = target: T3, Small ubiquitin-related modifier 2; assay: SUMO2–SIM peptide binding inhibitors, dose response, selectivity assay for SUMO1 interaction inhibitor project, biochemical, fluorescence polarization, uHTS hits (AID 624385); assay type: functional; details: read-out: IC50_Mean
[7] = target: T4, Small ubiquitin-related modifier 1 (Homo sapiens, UniProt P63165); assay: inhibitors of SUMO1 peptide binding, dose response, biochemical, fluorescence polarization, uHTS hits (AID 624382); assay type: functional; details: read-out: IC50_Mean
Hexokinase HKDC1 = target: T5, Hexokinase HKDC1 (Homo sapiens, UniProt Q2TB90); assay: HKDC1 hexokinase inhibitors, dose response, biochemical, W721R variant (AID 504729); assay type: functional
T5 sequence (Q2TB90 whole entry): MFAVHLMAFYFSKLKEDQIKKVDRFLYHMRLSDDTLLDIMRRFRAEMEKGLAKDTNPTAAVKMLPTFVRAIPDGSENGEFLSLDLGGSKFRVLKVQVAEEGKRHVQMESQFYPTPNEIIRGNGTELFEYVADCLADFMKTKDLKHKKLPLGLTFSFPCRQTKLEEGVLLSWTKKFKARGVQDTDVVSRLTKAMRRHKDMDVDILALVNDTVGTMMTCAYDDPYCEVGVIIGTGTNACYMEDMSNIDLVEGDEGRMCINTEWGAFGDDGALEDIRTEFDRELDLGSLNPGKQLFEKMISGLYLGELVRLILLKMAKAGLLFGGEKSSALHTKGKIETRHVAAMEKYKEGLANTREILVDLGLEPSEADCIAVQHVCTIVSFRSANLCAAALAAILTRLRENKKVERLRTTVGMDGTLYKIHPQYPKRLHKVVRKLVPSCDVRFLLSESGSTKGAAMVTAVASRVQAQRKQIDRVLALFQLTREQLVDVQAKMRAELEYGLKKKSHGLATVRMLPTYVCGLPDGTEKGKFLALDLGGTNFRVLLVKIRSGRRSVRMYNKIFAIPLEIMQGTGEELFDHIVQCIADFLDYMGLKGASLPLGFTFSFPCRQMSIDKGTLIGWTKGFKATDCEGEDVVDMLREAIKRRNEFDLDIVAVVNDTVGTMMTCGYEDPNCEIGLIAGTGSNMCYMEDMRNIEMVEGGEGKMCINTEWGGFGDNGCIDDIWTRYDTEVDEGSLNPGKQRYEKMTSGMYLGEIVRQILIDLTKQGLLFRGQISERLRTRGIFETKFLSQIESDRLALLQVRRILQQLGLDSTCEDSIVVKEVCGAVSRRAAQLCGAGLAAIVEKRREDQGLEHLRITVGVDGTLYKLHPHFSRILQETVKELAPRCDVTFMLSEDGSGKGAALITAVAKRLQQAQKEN

Genome polyprotein = Genome polyprotein (dengue virus type 2, UniProt P29990); assay: Dengue-2 NS5 methyltransferase inhibitors, primary screen, biochemical, confirmation dose response (AID 588689); assay type: functional
ORF 73 = target: T6, ORF 73 (Human herpesvirus 8, UniProt O40947); assay: inhibitors of C-LANA binding to LBS DNA, dose response, biochemical, fluorescence polarization, cherry-picked samples (AID 504725); parameters: species or system Human gammaherpesvirus 8;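 further: fluorescence polarization of a labeled DNA duplex reporting LANA DNA binding; potency is for inhibitors that block LANA binding to the DNA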
T6 sequence (O40947 whole entry): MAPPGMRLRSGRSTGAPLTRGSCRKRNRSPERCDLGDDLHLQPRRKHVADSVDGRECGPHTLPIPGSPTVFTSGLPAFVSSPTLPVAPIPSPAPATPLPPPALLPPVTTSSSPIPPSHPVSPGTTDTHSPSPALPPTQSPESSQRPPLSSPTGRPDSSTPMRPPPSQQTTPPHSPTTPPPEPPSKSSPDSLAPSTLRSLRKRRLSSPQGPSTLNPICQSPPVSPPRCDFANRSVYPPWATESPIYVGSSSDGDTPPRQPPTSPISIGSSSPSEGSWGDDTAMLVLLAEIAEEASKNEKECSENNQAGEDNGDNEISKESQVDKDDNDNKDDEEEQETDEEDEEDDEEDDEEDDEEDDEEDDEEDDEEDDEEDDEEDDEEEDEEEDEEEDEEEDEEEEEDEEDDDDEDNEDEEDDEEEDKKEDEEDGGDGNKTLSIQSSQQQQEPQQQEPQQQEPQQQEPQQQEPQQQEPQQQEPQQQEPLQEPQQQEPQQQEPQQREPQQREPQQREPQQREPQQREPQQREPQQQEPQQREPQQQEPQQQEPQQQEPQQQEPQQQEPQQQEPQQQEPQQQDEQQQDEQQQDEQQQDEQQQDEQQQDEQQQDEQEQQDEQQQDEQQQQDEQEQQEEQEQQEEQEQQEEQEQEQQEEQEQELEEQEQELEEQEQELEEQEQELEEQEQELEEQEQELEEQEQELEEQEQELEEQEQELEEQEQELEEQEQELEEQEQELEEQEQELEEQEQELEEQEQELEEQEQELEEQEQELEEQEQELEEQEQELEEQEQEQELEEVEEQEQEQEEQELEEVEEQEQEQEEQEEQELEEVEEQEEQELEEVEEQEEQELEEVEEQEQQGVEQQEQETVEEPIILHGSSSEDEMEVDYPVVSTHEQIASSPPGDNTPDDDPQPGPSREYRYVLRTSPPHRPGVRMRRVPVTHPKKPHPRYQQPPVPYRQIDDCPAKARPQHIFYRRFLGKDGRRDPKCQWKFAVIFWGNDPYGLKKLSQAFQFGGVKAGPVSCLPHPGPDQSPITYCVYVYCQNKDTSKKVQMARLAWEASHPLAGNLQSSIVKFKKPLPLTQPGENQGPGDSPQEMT

Salmon testes DNA = assay: DNA intercalators displacing acridine orange, dose response, artefact control for KSHV LANA DNA-binding inhibitor project, biochemical, fluorescence polarization, cherry-picked samples, set 2 (AID 504727); parameters: species or system Salmonidae
HeLa = assay: HeLa cell cytotoxicity, dose response, cytotoxicity control, 24 h, cherry-picked samples (AID 504726); assay type: functional, cell-based; details: Homo sapiens;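 further: potency for cytotoxicity as loss of luminescence signal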
[8] = target: T7, Polyadenylate-binding protein 1 (Homo sapiens, UniProt P11940); assay: PABP1 MLLE–PAM2 interaction inhibitors, dose response, miRNA deadenylation inhibitor project, biochemical, fluorescence polarization, Cy5-PAM2 peptide, secondary (AID 602260); assay type: functional; details: read-out: IC50_Mean
[9] = target: T4, Small ubiquitin-related modifier 1; assay: inhibitors of SUMO1 partner interactions, dose response, biochemical, FRET (AID 624383); assay type: functional; details: read-out: IC50_Mean
[10] = target: T8, Rac GTPase-activating protein 1 (Homo sapiens, UniProt Q9H0H5); assay: MgcRacGAP GTPase-activating activity inhibitors, confirmation, biochemical, ADP Hunter fluorescence, primary and confirmatory (AID 624330); assay type: functional
T8 sequence (Q9H0H5 whole entry): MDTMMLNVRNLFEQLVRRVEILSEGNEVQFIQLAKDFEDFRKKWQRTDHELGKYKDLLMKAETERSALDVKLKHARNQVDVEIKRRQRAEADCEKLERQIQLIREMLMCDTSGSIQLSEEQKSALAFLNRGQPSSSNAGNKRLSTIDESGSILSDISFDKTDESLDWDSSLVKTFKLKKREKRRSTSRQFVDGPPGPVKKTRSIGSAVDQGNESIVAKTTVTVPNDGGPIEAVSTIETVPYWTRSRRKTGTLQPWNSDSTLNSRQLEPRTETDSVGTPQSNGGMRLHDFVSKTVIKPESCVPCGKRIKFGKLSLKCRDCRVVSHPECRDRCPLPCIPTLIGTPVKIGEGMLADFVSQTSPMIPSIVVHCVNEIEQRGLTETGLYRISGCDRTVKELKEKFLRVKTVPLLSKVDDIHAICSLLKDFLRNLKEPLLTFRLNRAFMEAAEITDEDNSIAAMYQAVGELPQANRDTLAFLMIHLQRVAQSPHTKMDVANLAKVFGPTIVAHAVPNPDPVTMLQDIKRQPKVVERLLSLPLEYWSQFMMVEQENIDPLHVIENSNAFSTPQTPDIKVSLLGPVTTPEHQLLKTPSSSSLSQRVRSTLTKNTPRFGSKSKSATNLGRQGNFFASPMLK

Troponin, cardiac muscle = Troponin, cardiac muscle (Homo sapiens, UniProt P19429+P45379+P63316); assay: inhibitors of cardiac thin filament calcium sensitivity, dose response, biochemical, fluorescence, cardiac regulated thin filaments, triplicate IC50 (AID 504742); assay type: protein-complex assay
[11] = target: T7, Polyadenylate-binding protein 1; assay: PABP1 MLLE–PAM2 binding inhibitor potency, dose response, biochemical, fluorescence polarization, FITC-PAM2 peptide (AID 602259); assay type: functional; details: read-out: IC50_Mean

EC50 (Estrogen receptor): 23.1 µM (active)
EC50 [1]: 20.4 µM (inactive)
SMILES: Cc1noc(C)c1COC(=O)c1cc2c3ccccc3n(C)c2s1

IC50 [2]: > 69.5 µM (inactive)
EC50 [3]: 10.6 µM (active)
IC50 [4]: > 69.5 µM (inactive)
SMILES: O=C(NCc1ccccc1)C1=C[C@H](c2ccc(Br)cc2)C[C@H](OCc2ccc(CO)cc2)O1

SMILES: O=S(=O)(O)c1ccc(O)c2cc(Nc3ccccc3)ccc12
IC50 [5]: 0.58 µM (active)
IC50 [6]: 7.83 µM (active)
IC50 [7]: 11.6 µM (active)
IC50 (Hexokinase HKDC1): 9.14 µM (active)
IC50 (Genome polyprotein): 20 µM (active)
AC50 (ORF 73): 6.72 µM (active)
AC50 (Salmon testes DNA): 98.3 µM (active)
AC50 (HeLa): 233 µM (active)
IC50 [8]: > 66 µM (inactive)
IC50 [9]: 0.88 µM (active)
IC50 [10]: 19.6 µM (active)
IC50 (Troponin, cardiac muscle): 3.89 µM (active)
IC50 [11]: > 66 µM (inactive)

From ChEMBL document CHEMBL1201862, “PubChem BioAssay data set” (2004)
